Measurements: a melting point compilation (Tetko et al.; mined from patent text by program, amines drawn as free bases though some values may be those of a salt)

Compound `CN1c2c(oc(=O)n(-c3ncccn3)c2=O)-c2ccccc2S1(=O)=O` has a melting point of 282 to 284 °C.
For `O=C1CNC(=O)C(CCCCNC(=O)OCc2ccccc2)N1` (stereo not given), the melting point was 210 °C.
Work on `COc1ccc2[nH]cc(C3CCC(=O)CC3)c2c1` yielded a melting point of 103 to 106 °C.
With `CC(c1cccnc1)n1c(=O)[nH]c2cc(Cl)ccc21` (stereo not given) the melting point was 190 °C.
With `CC(=O)NCc1ncc(-n2nc(C)cc2C)nc1Nc1ccc(Cl)cc1` the melting point was 228 to 230 °C.
With `c1cc(CC2CCNC3CCCN23)ccc1CC1CCNC2CCCN12` (stereo not given) the melting point was 110 °C.
Work on `Cc1c(C)n(CC2CC2)c2c(OCc3ccc(F)cc3)nncc12` yielded a melting point of 137 to 138 °C.
With `Cc1[nH]c(=O)[nH]c1-c1cc(C(C)(C)C)c(O)c(C(C)(C)C)c1` the melting point was > 270 °C.
`O=C(Nc1ccc(-c2nnn[nH]2)cc1)C(=O)N1CCC(Cc2ccccc2)CC1` showed a melting point of 127 to 129 °C.
In the case of `CS(=O)(=O)c1ccc(-n2nc(C=O)cc2-c2ccccc2)cc1`, the melting point is reported as 133 to 136 °C.
For `C[Si](C)(C)CCCOC1CCN(c2ccc([N+](=O)[O-])cc2)C1` (stereo not given), the melting point was 68 °C.
Work on `O=Cc1c(-c2cccc(C(F)(F)F)c2)sc2ccccc12` yielded a melting point of 103 to 104 °C.
In the case of `COc1ccc(C2(OC)OC2(C)C)cc1` (stereo not given), the melting point is reported as 41 to 43 °C.
In the case of `Cc1ccc(-c2nnc3cc(-c4ccccc4)c(OCc4ncn(C)n4)nn23)s1`, the melting point is reported as 209 to 210 °C.
`CC(C)(SCC(N)=O)c1ccc2c(c1)OCO2` showed a melting point of 70 to 71.5 °C.
Compound `CNc1nc(Br)cc(Sc2ccc([N+](=O)[O-])cc2)n1` has a melting point of 204 to 205 °C.
With `COc1cc(-c2c3c(cc4ccc5c(c24)OCO5)C(=O)NC3)ccc1OCc1ccccc1` the melting point was 236 to 239 °C.
In the case of `O=C(O)c1c(O)cccc1-c1ccccc1`, the melting point is reported as 143 to 146 °C.
Compound `CONC(=O)Nc1ccc(-c2sc3c(c2CNC(C)c2ccccc2)c(=O)n(C2CCC(O)CC2)c(=O)n3Cc2c(F)cccc2F)cc1` (stereo not given) has a melting point of 137 to 138 °C.
`CCCCCCCCn1c(=O)n(CCN2CCN(c3ccccc3OC)CC2)c(=O)c2cscc21` showed a melting point of 82 to 84 °C.
With `CN1CCCCC(C2=CC(=O)CCC2)C1=O` (stereo not given) the melting point was 109 to 110 °C.
Work on `Cc1nc(OCCO)c(C#N)c(N2CCc3ccccc3CC2)n1` yielded a melting point of 86.7 to 92.3 °C.
Work on `Cc1cccc(SC2=C(O)CC(CCc3ccccc3)(c3ccccc3)OC2=O)c1` (stereo not given) yielded a melting point of 68 to 70 °C.
With `O=C(O)COn1cccn1` the melting point was 99 °C.
With `O=C(Sc1ccc(O)cc1)c1cccc(C(=O)Sc2ccc(O)cc2)c1` the melting point was 218 to 221 °C.
`O=C(NCCN1CCCCC1)N1CCN(c2ccccc2)CC1` gave a melting point of 64 to 67 °C.
`Cc1cnc2c(c1)COP(=S)(N(C)C)O2` (stereo not given) showed a melting point of 101 to 102 °C.
In the case of `Cn1c(-c2ccccc2Nc2cccc(C(F)(F)F)c2)n[nH]c1=O`, the melting point is reported as 178 to 180 °C.
With `OC(CN1CCNC1=S)c1cccc(F)c1` (stereo not given) the melting point was 116 °C.
Work on `CC(C)(C)OC(=O)N1CCC(O)(CS(N)(=O)=O)CC1` yielded a melting point of 176 to 180 °C.
With `O=C1c2cccc3c4c(cc(c23)C(=O)N1O)OCOC4` the melting point was > 350 °C.
For `N#Cc1cc(Cc2ccc(Cl)cc2)ccc1N`, the melting point was 91.5 to 93 °C.
`CCOC(Cc1ccc2oc(CN3c4ccccc4Sc4ccccc43)cc2c1)C(=O)O` (stereo not given) gave a melting point of 120 to 121 °C.
Compound `CCC(CC)(CC(=O)Nc1cccc(OCc2ccc3ccc(F)cc3n2)c1)C(=O)OC` has a melting point of 92 to 93 °C.
`CC(=O)OCCN(CCOC(C)=O)c1ccc(C=CC=Cc2ccc([N+](=O)[O-])cc2)cc1` showed a melting point of 195 to 198 °C.
In the case of `O=C(Nc1cccc2c1C(=O)c1c-2n[nH]c1-c1ccc(C(=O)NC2CCCCC2)s1)NN1CCOCC1`, the melting point is reported as 264 to 267 °C.
For `CS(=O)(=O)CCN1CCC2(CC1)CC(=O)c1cc(NS(C)(=O)=O)ccc1O2`, the melting point was 250 to 251 °C.
Work on `Cc1ccc2c(c1C)OC(=O)C2c1ccc(C(C)C)cc1` (stereo not given) yielded a melting point of 58 to 60 °C.
With `COc1cc(-c2nc3ccc(OCCCCl)cc3n2Cc2ccccc2)cc(OC)c1OC` the melting point was 118 °C.
`CCCc1nc(CO)c(C)[nH]1` gave a melting point of 134 to 136 °C.
In the case of `COC(=O)c1ccc(C(=O)NC(C)C)cc1S(N)(=O)=O`, the melting point is reported as 203 to 205 °C.
For `Nc1nc2ccccc2c2c1nc(-c1ccccc1)n2CCCCNC(=O)c1ccc2ccccc2n1`, the melting point was 81.1 to 83.9 °C.
Work on `CC(Oc1cccc(Oc2c(Cl)cc(C(F)(F)F)cc2Cl)c1)(C(=O)Cl)[N+](=O)[O-]` (stereo not given) yielded a melting point of 92 °C.
With `O=C(O)c1c2c(nc3ccc(F)cc13)-c1ccc(-c3ccccc3F)cc1CC2` the melting point was > 300 °C.
For `Cc1nccc(-c2ccccc2)c1CC[C@H]1C[C@H](O)CC(=O)O1` (relative stereo), the melting point was 107 to 108 °C.
With `CCOC(=O)c1cnc(N2CCN(Cc3ccccc3)CC2)nc1O` the melting point was 151 to 153 °C.
Work on `CC(NC=O)c1ccccc1C(F)(F)C(F)(F)c1ccccc1` (stereo not given) yielded a melting point of 103 to 105 °C.
Compound `Cc1c(CO)nc(-c2ccc(C(F)(F)F)cc2)n1C` has a melting point of 152 °C.
Compound `CCC1CC(=O)N(CCc2ccc(NC(=O)c3ccno3)cc2)N=C1c1ccc(OC)c(OC)c1` (stereo not given) has a melting point of 196 °C.
With `NC(=O)c1cc(C(=O)c2ccccc2)ccc1N` the melting point was 225 °C.
`CN1CCN(C2=Nc3cc(Cl)ccc3Cn3nnnc32)CC1` showed a melting point of 228 to 230 °C.
Compound `CCCCOCCOc1ccc(-c2ccc(N3CCC(C)CC3)c(C=C(C)C(=O)O)c2)cc1` has a melting point of 154 to 155 °C.
`COc1cccc(C(C)n2nc(C(=O)O)c3c2-c2ccc(OCc4cncnc4)cc2CC3)c1` (stereo not given) gave a melting point of 200 to 201 °C.
`CCOC(=O)C1=C(COCCN)NC=C(C(=O)OC)C1c1cccc(C(F)(F)F)c1Cl` (stereo not given) gave a melting point of 122 °C.
Work on `Cn1c(C2CCN(C(=O)OC(C)(C)C)CC2)nc2cc(-c3ccc(S(C)(=O)=O)cc3F)ccc21` yielded a melting point of 85 to 88 °C.
`Cc1ccc(S(=O)(=O)Oc2ccc(F)cc2Cl)cc1` gave a melting point of 92 to 94 °C.
Compound `Cc1cc(-c2nncc3c(C(C)(C)C)c(O)nn23)no1` has a melting point of 275 to 278 °C.
In the case of `O=C(O)CCCCCCCCC1CO1` (stereo not given), the melting point is reported as 48 °C.
In the case of `N=c1sc2cc(OC(F)(F)F)ccc2n1CCS(=O)c1ccncc1` (stereo not given), the melting point is reported as 194 °C.
For `CS(=O)(=O)OC(c1cccc(C(OS(C)(=O)=O)(C(F)(F)F)C(F)(F)F)c1)(C(F)(F)F)C(F)(F)F`, the melting point was 125 °C.
`CCN1CCCN(c2c(C)cccc2Cl)C1=S` showed a melting point of 88 to 90 °C.
For `CC(C)NC(=S)NCc1c(Cl)ccc(C(=O)O)c1Cl`, the melting point was > 220 °C.
In the case of `Cn1c(-c2ccc(Cl)cc2)nc2cc(CN3CCN(C(c4ccccc4)c4ccccc4)CC3)ccc21`, the melting point is reported as 198 °C.
`O=C(O)Cc1cccc(CCNC(=O)C2Cc3ccccc3N2S(=O)(=O)c2ccc(-c3cccc(C(F)(F)F)c3)cc2)c1` (stereo not given) showed a melting point of 90 °C.
`CC(C)[Si](C(C)C)(C(C)C)n1cc(SC(=O)c2ccccc2)c(C(=O)c2ccccc2)c1` gave a melting point of 120 to 122 °C.
In the case of `CC(c1oc2ccccc2c(=O)c1-c1ccccc1F)n1cnc2c(N)ncnc21` (stereo not given), the melting point is reported as 247 to 250 °C.
With `CC(C)c1ccc2c(c1)OC1(OC(=O)C(C)(C)C)c3ccccc3C(=O)C21OC(=O)C(C)(C)C` (stereo not given) the melting point was 153 to 157 °C.
For `COc1ccc(/C(=C\C=C\C(=O)NCCCCc2cccnc2)c2ccccc2OC)cc1`, the melting point was 164 to 165 °C.
`CCCc1nc(SC2CCC(CC(=O)O)CC2)c(C(=O)O)n1Cc1cc2c(cc1Cl)OCO2` (stereo not given) showed a melting point of 166 °C.
`O=Cc1c2ccccc2cc2oc3ccccc3c12` gave a melting point of 128 to 132 °C.
